Legend:
[1] = biological target: T1, VMAT2 (Homo sapiens, UniProt Q05940); assay: PET imaging of nigrostriatal dopaminergic neurons with ^18F-AV-133 (fused/simulated dual radiopharmaceutical images); format: in vivo; conditions: imaged between 70 and 80 minutes, simulated fused image
T1 construct: from tissue; host or cells: brain (striatal regions, dopaminergic neurons) of living human subjects, in vivo PET
Procedure: (§1) Data was generated from the radiopharmaceutical imaging of β-amyloid plaque and nigrostriatal dopaminergic degeneration utilizing dual radiopharmaceuticals. The radiopharmaceuticals utilized included ^18F-AV-45, which targets β-amyloid plaque and ^18F-AV-133, which targets nigrostriatal neurons. The radiopharmaceuticals were administered via intravenous injection to subjects who were clinically diagnosed with Parkinson's Disease (PD) or Alzheimer's Disease (AD).
(§2) Data was analyzed for PD patients (PD_AV133) and Healthy Controls (HC_AV133) as well as for AD patients (AD_AV45) and Healthy Controls (HC_AV45). Data and images derived from subjects in each category were analyzed individually. Data and images from an average of 4 subjects in each respective category was also analyzed and used as the basis of this protocol. The optimal imaging protocol was judged based on the following criteria: clarity of images/data in the cortical, grey, and white volumes of interest (VOIs) of the brain (relating to diagnosis of AD) and the striatal VOIs of the brain (relating to diagnosis of PD/DLB); ease and level of certainty of the individual diagnoses of the presence or absence of AD, PD, and DLB; minimum level of radiation injected into a patient; and minimum protocol completion time.
(§3) FIGS. 1, 4, 7 and 10 were created by the fusion of two separate image data sets, one from a PET scan of an ^18F amyloid plaque-binding radiopharmaceutical (^18F-AV-45) and one from a PET scan of an ^18F VMAT2 targeted radiopharmaceutical (^18F-AV-133). FIG. 1 is a simulated image of the brain of a healthy individual with no observable amyloid plaques and normal dopaminergic neurons (imaged between 70 and 80 minutes). […] This image pattern is consistent with a pure AD diagnosis, with no evidence of loss of striatal neurons (which would be observed if PD or DLB were also present). […] This image pattern is consistent with a pure PD diagnosis, without evidence of AD amyloid plaque pathology.
(§4) The Statistical Parametric Mapping (SPM2) application in MATLAB® (Version 7.3 R2006b, MathWorks, Inc.) was used to align the raw images and create a mean image from the image set. The mean image was normalized to a SPECT template, although in other experiments, other templates were used. Using the image viewer application in MRICro, the normalized mean image was compared with the template image to confirm that the two images align. […] Standardized uptake values (SUVs) were calculated from the counts extracted from the images. […]
(§5) The cortical regions are where amyloid plaques are found in the brain using the ^18F-AV-45 radiopharmaceutical, while the striatal regions contain dopaminergic neurons detected with the ^18F-AV-133 radiopharmaceutical. […]

[2] = system: β-amyloid plaque; assay: PET imaging of β-amyloid plaque with ^18F-AV-45 (fused/simulated dual radiopharmaceutical images); format: in vivo, human; conditions: imaged between 70 and 80 minutes, simulated fused image
Procedure: as §1, §2, §3, §4, §5

[3] = Brain washout of first radiopharmaceutical in the dual imaging protocol; format: in vivo, human; conditions: 10 mCi intravenous; at second acquisition, 30 minutes after ^18F-AV-133 given about 50 minutes after start of protocol
Description: The cortical regions are where amyloid plaques are found in the brain using the ^18F-AV-45 radiopharmaceutical, while the striatal regions contain dopaminergic neurons detected with the ^18F-AV-133 radiopharmaceutical. […] FIGS. 5 and 6 show simulated activity curves for cortical and striatal regions of the brain, respectively, for an individual with AD. FIGS. 8 and 9 show simulated activity curves for cortical and striatal regions of the brain, respectively, of an individual with PD while FIGS. 11 and 12 show simulated activity curves for cortical and striatal regions of the brain, respectively, of an individual with AD and PD. […] Whenever the two radiopharmaceuticals were considered as being simultaneously present in the brain, the SUVs from both radiopharmaceuticals for each region were summed together, and the summed SUVs were plotted. This allowed for the simulation/prediction of the interaction and possible interference of activity of one radiopharmaceutical with the other when both are present in the brain during the imaging of the subject.
Through analyzing and experimenting with the plots and images described above, a protocol for the simultaneous imaging of AD plaques and dopaminergic neuronal degeneration was created. […] The total protocol time was about 80 to 90 minutes. […]

[4] = FIG. 4, individual with clinical signs of AD
[5] = FIG. 7, individual exhibiting symptoms of PD
[6] = FIG. 10, individual with both AD and PD

T1 sequence (Q05940 whole entry, the tested form may be a part): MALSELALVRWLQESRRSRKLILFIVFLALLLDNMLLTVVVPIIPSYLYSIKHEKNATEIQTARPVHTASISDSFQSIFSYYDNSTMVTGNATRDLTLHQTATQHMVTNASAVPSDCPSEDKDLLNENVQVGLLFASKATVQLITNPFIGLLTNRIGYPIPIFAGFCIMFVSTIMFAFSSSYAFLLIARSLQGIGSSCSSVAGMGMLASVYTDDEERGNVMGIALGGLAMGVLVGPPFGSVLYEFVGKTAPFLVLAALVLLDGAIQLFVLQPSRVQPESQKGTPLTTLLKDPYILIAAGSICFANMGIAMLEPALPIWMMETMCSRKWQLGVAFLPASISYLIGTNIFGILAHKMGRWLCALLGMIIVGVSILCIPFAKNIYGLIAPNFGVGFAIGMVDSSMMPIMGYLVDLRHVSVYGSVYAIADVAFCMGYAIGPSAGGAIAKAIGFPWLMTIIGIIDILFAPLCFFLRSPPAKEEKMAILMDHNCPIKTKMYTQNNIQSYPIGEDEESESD

Compound | signal in the nigrostriatal region from ^18F-AV-133 ([1]; FIG. 1, healthy individual) | uptake of ^18F-AV-133 in the nigrostriatal region of the brain [1, 4] | intensity of ^18F-AV-133 in the striatal regions [1, 5] | uptake of AV-133 in the striatal regions [1, 6] | cortical brain signal from ^18F-AV-45 ([2]; FIG. 1, healthy individual) | ^18F-AV-45 radiopharmaceutical signal (amyloid plaque deposits) [2, 4] | amyloid signal in the cortical brain regions from ^18F-AV-45 [2, 5] | ^18F-AV-45 retention (amyloid plaques) [2, 6] | washout and radioactive decay of ^18F-AV-45 from brain [3]
COc1cc2c(cc1OCCC[18F])CCN1C[C@@H](CC(C)C)[C@H](O)C[C@H]21 [^18F-AV-133, (2R,3R,11bR)-9-(3-[18F]fluoropropoxy)-3-isobutyl-10-methoxy-2,3,4,6,7,11b-hexahydro-1H pyrido[2,1a]isoquinolin-2-ol] | strong signal in the nigrostriatal region | normal uptake | lack of intensity in the striatal regions | diminished uptake |  |  |  |  | 
CNc1ccc(/C=C/c2ccc(OCCOCCOCC[18F])nc2)cc1 [^18F-AV-45, (E)-4-(2-(6-(2-(2-(2-[^18F]fluoroethoxy)ethoxy)ethoxy)pyridin-3-yl)vinyl)-N-methylbenzenamine] |  |  |  |  | no appreciable cortical brain signal | Amyloid plaque deposits are visible in the frontal region of the brain | does not show evidence of amyloid signal in the cortical brain regions | retention in cortical brain | essentially complete
